Laboratory results from US8455475B2 (Gruenenthal GmbH, priority 2009, dated 2013).

Key:
[1] = biological target: T1, rat B1R (bradykinin receptor 1) (Rattus norvegicus, UniProt P97583); test: FLIPR Ca2+ assay (Fluo-4) on CHO K1 cells stably transfected with the B1R gene of the rat (rB1R cells): % inhibition at 10 μM / IC50, agonist Des-Arg9-bradykinin; assay type: cell-based; conditions: CHO-K1, rat B1R
T1 construct: expressed in transfected cells; host or cells: CHO K1 cells
T1 sequence (P97583 1-337): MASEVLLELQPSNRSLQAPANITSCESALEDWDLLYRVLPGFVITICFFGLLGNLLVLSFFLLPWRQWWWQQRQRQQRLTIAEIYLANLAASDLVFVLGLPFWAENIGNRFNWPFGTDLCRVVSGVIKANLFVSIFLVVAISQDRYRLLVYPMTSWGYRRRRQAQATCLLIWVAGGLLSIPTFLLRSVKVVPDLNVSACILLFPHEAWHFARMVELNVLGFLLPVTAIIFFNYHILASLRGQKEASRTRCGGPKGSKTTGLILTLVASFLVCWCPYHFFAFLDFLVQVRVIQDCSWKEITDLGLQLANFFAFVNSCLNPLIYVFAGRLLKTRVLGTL
Outline: (§1)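 Peak fluorescence counts read on FLIPR (λex 488, λem 540 nm) after two additions: compound first, then agonist at EC80 after 10–20 min. Human line challenged with Lys-Des-Arg9-bradykinin, rat line with Des-Arg9-bradykinin. Suppression of Ca2+ inflow expressed as % of maximum inhibition.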

[2] = biological target: T2, human B1R (bradykinin receptor 1) (Homo sapiens, UniProt P46663); test: FLIPR Ca2+ assay (Fluo-4) on CHO K1 cells stably transfected with the human B1R gene (hB1R cells): % inhibition at 10 μM / IC50, agonist Lys-Des-Arg9-bradykinin; assay type: cell-based; conditions: CHO-K1, human B1R
T2 construct: expressed in transfected cells; host or cells: CHO K1 cells
T2 sequence (P46663 1-353): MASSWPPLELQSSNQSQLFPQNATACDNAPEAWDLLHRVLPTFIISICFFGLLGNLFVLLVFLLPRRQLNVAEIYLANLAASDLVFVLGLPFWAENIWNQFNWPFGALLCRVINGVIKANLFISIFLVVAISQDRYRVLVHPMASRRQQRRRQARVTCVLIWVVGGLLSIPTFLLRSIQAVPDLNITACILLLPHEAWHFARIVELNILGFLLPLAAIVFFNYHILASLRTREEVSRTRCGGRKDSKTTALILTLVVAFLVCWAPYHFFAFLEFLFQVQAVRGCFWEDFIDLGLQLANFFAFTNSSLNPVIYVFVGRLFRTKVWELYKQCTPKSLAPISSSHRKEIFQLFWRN
Outline: as §1

| SMILES | inhibition at 10 µM [1] | inhibition at 10 µM [2] |
| --- | --- | --- |
| COc1ccc(S(=O)(=O)N[C@@H]2CCc3ccc(C(=O)N4CCC5(CCN(c6ccncc6)CC5)C4)cc32)c(C)c1 [Example H-147, 4-Methoxy-2-methyl-N-[(1R)-6-(8-pyridin-4-yl-3,8-diazaspiro[4.5]decane-3-carbonyl)-2,3-dihydro-1H-inden-1-yl]-benzenesulfonic acid amide] | 104% | 100% |
| O=C(c1ccc2c(c1)[C@H](NS(=O)(=O)c1c(Cl)cccc1C(F)(F)F)CC2)N1CCC2(CCN(c3ccncc3)CC2)C1 [Example H-149, 2-Chloro-N-[(1R)-6-(8-pyridin-4-yl-3,8-diazaspiro[4.5]decane-3-carbonyl)-2,3-dihydro-1H-inden-1-yl]-6-(trifluoromethyl)-benzenesulfonic acid amide] | 103% | 100% |
| O=C(c1ccc2c(c1)[C@H](NS(=O)(=O)Cc1ccccc1Cl)CC2)N1CCC2(CCN(c3ccncc3)CC2)C1 [Example H-150, 1-(2-Chlorophenyl)-N-[(1R)-6-(8-pyridin-4-yl-3,8-diazaspiro[4.5]decane-3-carbonyl)-2,3-dihydro-1H-inden-1-yl]-methanesulfonic acid amide] | 100% | 97% |
| O=C(c1ccc2c(c1)CC[C@@H]2N1Cc2cccc(Cl)c2C1=O)N1CCC2(CCN(c3ccncc3)CC2)C1 [Example H-157] | 98% | 100% |
| O=C(c1ccc2c(c1)CC[C@@H]2N1Cc2cccc(Cl)c2C1=O)N1CCC2(CC1)CCN(c1ccncc1)CC2 [Example H-158, 7-Chloro-2-[(1S)-5-(9-pyridin-4-yl-3,9-diazaspiro[5.5]undecane-3-carbonyl)-2,3-dihydro-1H-inden-1-yl]-2,3-dihydro-isoindol-1-one] | 100% | 92% |
| O=C(c1ccc2c(c1)CC[C@H]2N1Cc2cccc(Cl)c2C1=O)N1CCC2(CC1)CCN(c1ccncc1)CC2 [Example H-159, 7-Chloro-2-[(1R)-5-(9-pyridin-4-yl-3,9-diazaspiro[5.5]undecane-3-carobnyl)-2,3-dihydro-1H-inden-1-yl]-2,3-dihydro-isoindol-1-one] | 103% | 98% |
| O=C(c1ccc2c(c1)CC[C@H]2N1Cc2cccc(Cl)c2C1=O)N1CCC2(CCN(c3ccncc3)CC2)C1 [Example H-160] | 105% | 98% |
| O=C(N[C@H]1CCc2c(C(=O)N3CCC4(CC3)CCN(c3ccncc3)CC4)cccc21)c1ccccc1Cl [Example H-163, 2-Chloro-N-[(1S)-4-(9-pyridin-4-yl-3,9-diazaspiro[5.5]undecane-3-carbonyl)-2,3-dihydro-1H-inden-1-yl]-benzamide] | 105% | 63% |
| O=C(N[C@@H]1CCc2c(C(=O)N3CCC4(CC3)CCN(c3ccncc3)CC4)cccc21)c1ccccc1Cl [Example H-164, 2-Chloro-N-[(1R)-4-(9-pyridin-4-yl-3,9-diazaspiro[5.5]undecane-3-carbonyl)-2,3-dihydro-1H-inden-1-yl]-benzamide] | 77% | 25% |
| O=C(c1cccc2c1CC[C@@H]2NS(=O)(=O)c1ccccc1Cl)N1CCC2(CCN(c3ccncc3)CC2)C1 [Example H-165, 2-Chloro-N-[(1S)-4-(8-pyridin-4-yl-3,8-diazaspiro[4.5]decane-3-carbonyl)-2,3-dihydro-1H-inden-1-yl]-benzenesulfonic acid amide] | 44% | 44% |
| O=C(c1cccc2c1CC[C@H]2NS(=O)(=O)c1ccccc1Cl)N1CCC2(CCN(c3ccncc3)CC2)C1 [Example H-166, 2-Chloro-N-[(1R)-4-(8-pyridin-4-yl-3,8-diazaspiro[4.5]decane-3-carbonyl)-2,3-dihydro-1H-inden-1-yl]-benzenesulfonic acid amide] | -4% | 21% |
| O=C(c1cccc2c1CC[C@H]2NS(=O)(=O)c1ccccc1Cl)N1CCC2(CC1)CCN(c1ccncc1)CC2 [Example H-167, 2-Chloro-N-[(1R)-4-(9-pyridin-4-yl-3,9-diazaspiro[5.5]undecane-3-carbonyl)-2,3-dihydro-1H-inden-1-yl]-benzenesulfonic acid amide] | 81% | 35% |
| O=C(c1cccc2c1CC[C@@H]2N1Cc2cccc(Cl)c2C1=O)N1CCC2(CCN(c3ccncc3)CC2)C1 [Example H-168, 7-Chloro-2-[(1S)-4-(8-pyridin-4-yl-3,8-diazaspiro[4.5]decane-3-carbonyl)-2,3-dihydro-1H-inden-1-yl]-2,3-dihydro-isoindol-1-one] | 55% | 96% |
| O=C(c1cccc2c1CC[C@H]2N1Cc2cccc(Cl)c2C1=O)N1CCC2(CCN(c3ccncc3)CC2)C1 [Example H-169, 7-Chloro-2-[(1R)-4-(8-pyridin-4-yl-3,8-diazaspiro[4.5]decane-3-carbonyl)-2,3-dihydro-1H-inden-1-yl]-2,3-dihydro-isoindol-1-one] | 12% | 54% |

Now from value to molecule:

| inhibition at 10 µM [1] | inhibition at 10 µM [2] | SMILES |
| --- | --- | --- |
| 102% | 100% | CC(C)(C(=O)N[C@@H]1CCc2ccc(C(=O)N3CCC4(CCN(c5ccncc5)CC4)C3)cc21)c1ccccc1Cl [Example H-146, 2-(2-Chlorophenyl)-2-methyl-N-[(1R)-6-(8-pyridin-4-yl-3,8-diazaspiro[4.5]decane-3-carbonyl)-2,3-dihydro-1H-inden-1-yl]-propionamide] |
| 101% | 100% | O=C(c1ccc2c(c1)[C@H](NC(=O)C1(c3ccccc3Cl)CC1)CC2)N1CCC2(CCN(c3ccncc3)CC2)C1 [Example H-148, 1-(2-Chlorophenyl)-N-[(1R)-6-(8-pyridin-4-yl-3,8-diazaspiro[4.5]decane-3-carbonyl)-2,3-dihydro-1H-inden-1-yl]-cyclopropane-1-carboxylic acid amide] |
| 103% | 99% | O=C(Cc1ccccc1Cl)N[C@@H]1CCc2ccc(C(=O)N3CCC4(CCN(c5ccncc5)CC4)C3)cc21 [Example H-151, 2-(2-Chlorophenyl)-N-[(1R)-6-(8-pyridin-4-yl-3,8-diazaspiro[4.5]decane-3-carbonyl)-2,3-dihydro-1H-inden-1-yl]-acetamide] |
| 101% | 99% | O=C(Cc1ccccc1F)N[C@@H]1CCc2ccc(C(=O)N3CCC4(CCN(c5ccncc5)CC4)C3)cc21 [Example H-152, 2-(2-Fluorophenyl)-N-[(1R)-6-(8-pyridin-4-yl-3,8-diazaspiro[4.5]decane-3-carbonyl)-2,3-dihydro-1H-inden-1-yl]-acetamide] |
| 105% | 99% | O=C(N[C@@H]1CCc2ccc(C(=O)N3CCC4(CCN(c5ccncc5)CC4)C3)cc21)c1cccc(F)c1Cl [Example H-153, 2-Chloro-3-fluoro-N-[(1R)-6-(8-pyridin-4-yl-3,8-diazaspiro[4.5]decane-3-carbonyl)-2,3-dihydro-1H-inden-1-yl]-benzamide] |
| 105% | 99% | Cc1ccccc1CC(=O)N[C@@H]1CCc2ccc(C(=O)N3CCC4(CCN(c5ccncc5)CC4)C3)cc21 [Example H-154, 2-(o-Tolyl)-N-[(1R)-6-(8-pyridin-4-yl-3,8-diazaspiro[4.5]decane-3-carbonyl)-2,3-dihydro-1H-inden-1-yl]-acetamide] |
| 100% | 87% | O=C(N[C@H]1CCc2cc(C(=O)N3CCC4(CCN(c5ccncc5)CC4)C3)ccc21)c1ccccc1Cl [Example H-155] |
| 75% | 24% | O=C(N[C@H]1CCc2cc(C(=O)N3CCC4(CC3)CCN(c3ccncc3)CC4)ccc21)c1ccccc1Cl [Example H-156, 2-Chloro-N-[(1S)-5-(9-pyridin-4-yl-3,9-diazaspiro[5.5]undecane-3-carbonyl)-2,3-dihydro-1H-inden-1-yl]-benzamide] |
| 104% | 89% | O=C(N[C@H]1CCc2c(C(=O)N3CCC4(CCN(c5ccncc5)CC4)C3)cccc21)c1ccccc1Cl [Example H-161, 2-Chloro-N-[(1S)-4-(8-pyridin-4-yl-3,8-diazaspiro[4.5]decane-3-carbonyl)-2,3-dihydro-1H-inden-1-yl]-benzamide] |
| 61% | 13% | O=C(N[C@@H]1CCc2c(C(=O)N3CCC4(CCN(c5ccncc5)CC4)C3)cccc21)c1ccccc1Cl [Example H-162, 2-Chloro-N-[(1R)-4-(8-pyridin-4-yl-3,8-diazaspiro[4.5]decane-3-carbonyl)-2,3-dihydro-1H-inden-1-yl]-benzamide] |
